pIC50: −log10 of the molar value.
What was measured:
[1] = tested on: MDA-MB-435; assay: Growth inhibition of human MDA-MB-435 cells assessed as cell growth at 1 uM incubated for 48 hrs by sulforhodamine B assay relative to control; assay type: functional; settings: MDA-MB-435, 48 h, read-out: Activity
[2] = tested on: RPMI-8226; assay: Growth inhibition of human RPMI8226 cells incubated for 48 hrs by sulforhodamine B assay; assay type: functional, cell-based; settings: RPMI-8226, 48 h
[3] = tested on: CAKI-1; assay: Growth inhibition of human Caki1 cells incubated for 48 hrs by sulforhodamine B assay; assay type: functional, cell-based; settings: CAKI-1, 48 h
[4] = tested on: RPMI-8226; assay: Growth inhibition of human RPMI8226 cells assessed as cell growth at 0.01 uM incubated for 48 hrs by sulforhodamine B assay relative to control; assay type: functional; settings: RPMI-8226, 48 h, read-out: Activity
[5] = tested on: SF-268; assay: Growth inhibition of human SF268 cells assessed as cell growth at 0.01 uM incubated for 48 hrs by sulforhodamine B assay relative to control; assay type: functional; settings: SF-268, 48 h, read-out: Activity
[6] = tested on: CCRF-CEM; assay: Growth inhibition of human CCRF-CEM cells assessed as cell growth at 0.1 uM incubated for 48 hrs by sulforhodamine B assay relative to control; assay type: functional; settings: read-out: Activity
[7] = tested on: ACHN; assay: Growth inhibition of human ACHN cells assessed as cell growth at 1 uM incubated for 48 hrs by sulforhodamine B assay relative to control; assay type: functional; settings: read-out: Activity
[8] = tested on: CAKI-1; assay: Growth inhibition of human Caki1 cells assessed as cell growth at 100 uM incubated for 48 hrs by sulforhodamine B assay relative to control; assay type: functional; settings: CAKI-1, 48 h, read-out: Activity
[9] = tested on: MDA-MB-231; assay: Growth inhibition of human MDA-MB-231 cells assessed as cell growth at 1 uM incubated for 48 hrs by sulforhodamine B assay relative to control; assay type: functional; settings: MDA-MB-231, 48 h, read-out: Activity
[10] = tested on: NCI-H322M; assay: Growth inhibition of human NCI-H322M cells assessed as cell growth at 1 uM incubated for 48 hrs by sulforhodamine B assay relative to control; assay type: functional; settings: read-out: Activity
[11] = tested on: OVCAR-8; assay: Growth inhibition of human OVCAR8 cells incubated for 48 hrs by sulforhodamine B assay; assay type: functional, cell-based; settings: OVCAR-8, 48 h
[12] = tested on: ACHN; assay: Growth inhibition of human ACHN cells assessed as cell growth at 0.1 uM incubated for 48 hrs by sulforhodamine B assay relative to control; assay type: functional; settings: read-out: Activity
[13] = tested on: SK-OV-3; assay: Growth inhibition of human SKOV3 cells assessed as cell growth at 100 uM incubated for 48 hrs by sulforhodamine B assay relative to control; assay type: functional; settings: SK-OV-3, 48 h, read-out: Activity
[14] = tested on: HOP-62; assay: Growth inhibition of human HOP62 cells assessed as cell growth at 0.1 uM incubated for 48 hrs by sulforhodamine B assay relative to control; assay type: functional; settings: HOP-62, 48 h, read-out: Activity
[15] = tested on: 786-0; assay: Growth inhibition of human 786-0 cells assessed as cell growth at 100 uM incubated for 48 hrs by sulforhodamine B assay relative to control; assay type: functional; settings: 786-0, 48 h, read-out: Activity
[16] = tested on: HCT-116; assay: Growth inhibition of human HCT116 cells assessed as cell growth at 1 uM incubated for 48 hrs by sulforhodamine B assay relative to control; assay type: functional; settings: HCT-116, 48 h, read-out: Activity
[17] = tested on: UO-31; assay: Growth inhibition of human UO31 cells assessed as cell growth at 100 uM incubated for 48 hrs by sulforhodamine B assay relative to control; assay type: functional; settings: UO-31, 48 h, read-out: Activity
[18] = tested on: Malme-3M; assay: Growth inhibition of human MALME-3M cells incubated for 48 hrs by sulforhodamine B assay; assay type: functional, cell-based
[19] = tested on: UO-31; assay: Growth inhibition of human UO31 cells assessed as cell growth at 0.1 uM incubated for 48 hrs by sulforhodamine B assay relative to control; assay type: functional; settings: UO-31, 48 h, read-out: Activity
[20] = tested on: NCI-H460; assay: Growth inhibition of human NCI-H460 cells assessed as cell growth at 100 uM incubated for 48 hrs by sulforhodamine B assay relative to control; assay type: functional; settings: NCI-H460, 48 h, read-out: Activity
[21] = tested on: NCI-H322M; assay: Growth inhibition of human NCI-H322M cells incubated for 48 hrs by sulforhodamine B assay; assay type: functional, cell-based
[22] = tested on: HCC 2998; assay: Growth inhibition of human HCC2998 cells assessed as cell growth at 0.01 uM incubated for 48 hrs by sulforhodamine B assay relative to control; assay type: functional; settings: HCC 2998, 48 h, read-out: Activity
[23] = tested on: SF-295; assay: Growth inhibition of human SF295 cells incubated for 48 hrs by sulforhodamine B assay; assay type: functional, cell-based; settings: SF-295, 48 h
[24] = tested on: NCI-H460; assay: Growth inhibition of human NCI-H460 cells assessed as cell growth at 0.01 uM incubated for 48 hrs by sulforhodamine B assay relative to control; assay type: functional; settings: NCI-H460, 48 h, read-out: Activity
[25] = tested on: NCI-H460; assay: Growth inhibition of human NCI-H460 cells assessed as cell growth at 1 uM incubated for 48 hrs by sulforhodamine B assay relative to control; assay type: functional; settings: NCI-H460, 48 h, read-out: Activity
[26] = tested on: MCF7; assay: Growth inhibition of human MCF7 cells assessed as cell growth at 100 uM incubated for 48 hrs by sulforhodamine B assay relative to control; assay type: functional; settings: MCF7, 48 h, read-out: Activity
[27] = tested on: MCF7; assay: Growth inhibition of human MCF7 cells assessed as cell growth at 0.1 uM incubated for 48 hrs by sulforhodamine B assay relative to control; assay type: functional; settings: MCF7, 48 h, read-out: Activity
[28] = tested on: HCT-15; assay: Growth inhibition of human HCT15 cells assessed as cell growth at 0.01 uM incubated for 48 hrs by sulforhodamine B assay relative to control; assay type: functional; settings: HCT-15, 48 h, read-out: Activity
[29] = tested on: NCI-H522; assay: Growth inhibition of human NCI-H522 cells assessed as cell growth at 1 uM incubated for 48 hrs by sulforhodamine B assay relative to control; assay type: functional; settings: NCI-H522, 48 h, read-out: Activity
[30] = read-out: LC50 (the source's name)
[31] = read-out: pLC50 (the source's name) (converted)

With `COc1cc(Cl)cc(-c2nn(-c3cccc(NC(=O)Nc4cccc(C(F)(F)F)c4)c3)cc2-c2ccncc2)c1` the growth at 1 µM [1] was 85%, the pIC50 [2] was 6.37 and the GI50 ([2]; read-out: GI50) was 0.43 µM. For the same compound, the CC50 [2, 30] was greater than 100 µM, the TGI ([2]; read-out: TGI) was 23 µM and the GI50 ([2]; read-out: pGI50 (converted)) was 0.427 µM. It also gave a CC50 [2, 31] greater than 100 µM, a TGI ([2]; read-out: pTGI (converted)) of 2.29 µM and a GI50 ([3]; read-out: GI50) of 1.29 µM. For the same compound, the CC50 [3, 30] was greater than 100 µM, the TGI ([3]; read-out: TGI) was 52 µM and the GI50 ([3]; read-out: pGI50 (converted)) was 1.29 µM. The CC50 [3, 31] was greater than 100 µM, the TGI ([3]; read-out: pTGI (converted)) was 8.91 µM and the growth at 0.01 µM [4] was 99%. It also gave a growth at 0.01 µM [5] of 97%, a growth at 0.1 µM [6] of 97% and a growth at 1 µM [7] of 65%. For the same compound, the growth at 100 µM [8] was -20%, the growth at 1 µM [9] was 71% and the growth at 1 µM [10] was 83%. It also gave a GI50 ([11]; read-out: GI50) of 1.12 µM, a CC50 [11, 30] greater than 100 µM and a TGI ([11]; read-out: TGI) of 45.8 µM. The GI50 ([11]; read-out: pGI50 (converted)) was 1.12 µM, the CC50 [11, 31] was greater than 100 µM and the TGI ([11]; read-out: pTGI (converted)) was 4.9 µM. The growth at 0.1 µM [12] was 92%, the growth at 100 µM [13] was -3% and the growth at 0.1 µM [14] was 97%. The growth at 100 µM [15] was -57%, the growth at 1 µM [16] was 43% and the growth at 100 µM [17] was -20%. For the same compound, the GI50 ([18]; read-out: GI50) was 1.79 µM, the CC50 [18, 30] was greater than 100 µM and the TGI ([18]; read-out: TGI) was 59.1 µM. For the same compound, the GI50 ([18]; read-out: pGI50 (converted)) was 1.78 µM, the CC50 [18, 31] was greater than 100 µM and the TGI ([18]; read-out: pTGI (converted)) was 5.89 µM. For the same compound, the growth at 0.1 µM [19] was 50%, the growth at 100 µM [20] was -48% and the GI50 ([21]; read-out: GI50) was 2.53 µM. For the same compound, the CC50 [21, 30] was greater than 100 µM, the TGI ([21]; read-out: TGI) was 22.9 µM and the GI50 ([21]; read-out: pGI50 (converted)) was 2.63 µM. For the same compound, the CC50 [21, 31] was greater than 100 µM, the TGI ([21]; read-out: pTGI (converted)) was 22.4 µM and the growth at 0.01 µM [22] was 98%. It also gave a GI50 ([23]; read-out: GI50) of 0.753 µM, a CC50 [23, 30] of 75.9 µM and a TGI ([23]; read-out: TGI) of 45.2 µM. It also gave a GI50 ([23]; read-out: pGI50 (converted)) of 0.776 µM, a CC50 [23, 31] of 77.6 µM and a TGI ([23]; read-out: pTGI (converted)) of 4.57 µM. It also gave a growth at 0.01 µM [24] of 102%, a growth at 1 µM [25] of 45% and a growth at 100 µM [26] of -24%. The growth at 0.1 µM [27] was 102%, the growth at 0.01 µM [28] was 92% and the growth at 1 µM [29] was 33%.

From ChEMBL document CHEMBL4308841, “Synthesis, in vitro antiproliferative activity, and kinase inhibitory effects of pyrazole-containing diarylureas and diarylamides” (Eur J Med Chem, 2018)
